What was measured:
[1] = Cytotoxicity: destruction of MT-4 cells not infected with HIV, cultured the same way; format: cell-based; details: human, 5 days of incubation, concentration at which 50 % of the MT-4 cells were destroyed, read-out: 50% cytotoxic concentration to MT-4 cells
Protocol: (§1) In RPMI 1640 DM culture medium containing 20 mM of Hepes buffer solution, 10 % fetal bovine serum and 20 µg/ml of gentamycin, 3 x 10^4 MT-4 cells (human T cell clone which is destroyed by the infection of HIV) were infected with HIV in an amount of 100 times as large as expected to cause 50 % infection of the cells. Immediately thereafter, a predetermined amount of sample was added to the culture medium using 50 mg/ml sample solutions in dimethyl sulfoxide and the cells were cultured at 37°C.
(§2) After 5 days of incubation, the number of existing cells was counted to determine the concentration of the compound for preventing the death of 50 % of the MT-4 cells. Separately, MT-4 cells were cultured in the same way as above except that they were not infected with HIV to determine the concentration of the compound at which 50 % of the MT-4 cells were destroyed.

HIV = experiment: Inhibitory activity for HIV infection: prevention of death of HIV-infected MT-4 cells, cell count after 5 days; format: cell-based; details: Human immunodeficiency virus 1, MT4, 120 h, 5 days of incubation at 37°C, concentration preventing the death of 50 % of the MT-4 cells
Protocol: Inhibitory activity for HIV infection
as §1, §2

| Compound | CC50 at 120 h [1] [µM] | EC50 (HIV) [µM] |
| --- | --- | --- |
| CC(=O)OCCOCn1c(Sc2ccccc2)c(C)c(=O)[nH]c1=S [Compound 1, 1-[(2-acetoxyethoxy)methyl]-6-phenylthio-2-thiothymine] | 196 | – |
| CCCOCn1c(Sc2ccccc2)c(C)c(=O)[nH]c1=O [Compound 38] | 147 | 5.6 |
| CCOCn1c(-c2ccccc2)c(CC)c(=O)[nH]c1=S [Compound 215, 1-ethoxymethyl-5-ethyl-6-phenylthiouracil] | 133 | 0.016 |
| CCCCn1c(-c2ccccc2)c(CC)c(=O)[nH]c1=S [Compound 220, 1-butyl-5-ethyl-6-phenylthiouracil] | 45 | 0.016 |
| CCOCn1c(Sc2ccccc2)c(CC)c(=O)[nH]c1=S [Compound 313, 1-ethoxymethyl-5-ethyl-6-phenylthio-2-thiouracil] | 81 | – |
| CCOCn1c(Sc2cc(C)cc(C)c2)c(CC)c(=O)[nH]c1=S [Compound 314] | > 100 | 0.004 |
| CCOCn1c(Cc2ccccc2)c(CC)c(=O)[nH]c1=O [Compound 427, 6-benzyl-1-ethoxymethyl-5-ethyluracil] | 245 | – |

Reference: EP0829476B1, “6-Substituted acyclopyrimidine nucleoside derivatives and antiviral agent containing the same as active ingredient thereof” (MITSUBISHI CHEMICAL CORPORATION, priority 1989, dated 1991)
